How the values were obtained:
Type in all cases: biochemical
[1] = test system: recombinant Amaranthus tuberculatus PPO2 G399A
[2] = test system: recombinant Amaranthus tuberculatus PPO2 ΔG210
[3] = test system: recombinant Amaranthus tuberculatus PPO2 R128L

Structure (SMILES)	Resistance factor G399A (IC50 mutant / IC50 sensitive PPO2) [1]	Resistance factor ΔG210 (IC50 mutant / IC50 sensitive PPO2) [2]	Resistance factor R128L (IC50 mutant / IC50 sensitive PPO2) [3]
Cc1nn(-c2cc(NS(C)(=O)=O)c(Cl)cc2Cl)c(=O)n1C(F)F [Sulfentrazone]	282		
C#CCN(C)c1c(C#N)cnn1-c1nn2c(c1Cl)CCCC2 [Pyraclonil]	799	782	0
CCOC(=O)COc1cc(-c2nn(C)c(OC(F)F)c2Cl)c(F)cc1Cl [Pyraflufen-ethyl]	11816	1083	1
O=C(O)c1cc(Oc2ccc(C(F)(F)F)cc2Cl)ccc1[N+](=O)[O-] [Acifluorfen]	>541	>541	>541
CCOC(=O)C(C)OC(=O)c1cc(Oc2ccc(C(F)(F)F)cc2Cl)ccc1[N+](=O)[O-] (stereo not shown) [Lactofen]	28167	18271	2812
C#CCN1C(=O)COc2cc(F)c(N3C(=O)C4=C(CCCC4)C3=O)cc21 [Flumioxazin]	868	3157	2631
COC(=O)CSc1cc(/N=c2\sc(=O)n3n2CCCC3)c(F)cc1Cl [Fluthiacet-methyl]	3567	94	4
C=CCOC(=O)C(C)(C)OC(=O)c1cc(-n2c(=O)cc(C(F)(F)F)n(C)c2=O)ccc1Cl [Butafenacil]	741	17578	23
Cc1nn(-c2cc(CC(Cl)C(=O)O)c(Cl)cc2F)c(=O)n1C(F)F (stereo not shown) [Carfentrazone]	116	3957	3
CCOc1cc(Oc2ccc(C(F)(F)F)cc2Cl)ccc1[N+](=O)[O-] [Oxyfluorfen]	18548	982	74
CC(C)Oc1cc(-n2nc(C(C)(C)C)oc2=O)c(Cl)cc1Cl [Oxadiazon]	285	151	1

From publication PMC6530635, “A Novel Single-Site Mutation in the Catalytic Domain of Protoporphyrinogen Oxidase IX (PPO) Confers Resistance to PPO-Inhibiting Herbicides” (Frontiers in Plant Science, 2019)
